Source: patent US12679878B2, “CRF2 receptor agonists and their use in therapy” (SANOFI, priority 2020, dated 2026)
Starred links: 1 amine or outer side, 2 acyl side, 3 side chain; linkers in the order of their positions; H or OH if unused. Non-standard residues stand in square brackets, D forms with d. Residues, ends and D or L forms follow the SMILES beside them. Groups on a side chain read outwards from the residue. *: point of attachment. C18 diacid = O=C(O)CCCCCCCCCCCCCCCCC(=O)*; γGlu = O=C(O)[C@H](CCC(=O)[*:2])N[*:1]; AEEA = NCCOCCOCC(=O)O; Aib = CC(C)(N)C(=O)O

Target: T1, endogenous human CRF2 (Homo sapiens, UniProt Q13324)
T1 construct: endogenous in cells; host or cells: NCI-H82
T1 sequence (Q13324 1-411): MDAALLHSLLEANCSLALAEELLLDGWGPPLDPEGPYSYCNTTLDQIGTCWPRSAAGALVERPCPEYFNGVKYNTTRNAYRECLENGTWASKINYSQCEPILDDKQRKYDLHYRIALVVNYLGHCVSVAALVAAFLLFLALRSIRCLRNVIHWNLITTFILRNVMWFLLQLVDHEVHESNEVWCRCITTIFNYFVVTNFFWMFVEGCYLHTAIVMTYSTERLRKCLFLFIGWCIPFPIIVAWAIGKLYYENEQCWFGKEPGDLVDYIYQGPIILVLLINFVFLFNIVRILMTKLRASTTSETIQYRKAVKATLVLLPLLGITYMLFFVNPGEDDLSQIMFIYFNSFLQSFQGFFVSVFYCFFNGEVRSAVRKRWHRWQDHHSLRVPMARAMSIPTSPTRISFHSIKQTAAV
Experiment: cAMP agonist effect in NCI-H82 cells expressing endogenous human CRF2 (Example 10)
Format: cell-based
Conditions: cAMP HTRF, 5 min activation
Method: The agonist effect of the compounds was assessed in NCI-H82 cells expressing endogenous human CRF2.
NCI-H82 cells in suspension were plated in low-volume 384-well plates at a density of 30000 cells/well in 5 μl of test medium (RPMI+1 mM IBMX). The plates were briefly centrifuged at 800 rpm to allow the cell suspension to move to the bottom of the wells and then incubated for 2 hours at 37° C. in 5% CO2. 5 μl of test compounds at appropriate concentrations (10-11 to 3×10-7) diluted in test medium were then transferred in 384 wells plates. After 5 min of activation, the reaction was stopped by addition of HTRF revelation reagents with a multidrop dispenser. The two reagents were 5 μl/well of Anti-CAMP-cryptate diluted 20-fold in conjugate and lysis buffer and 5 μl/well of cAMP-D2 diluted 20-fold in conjugate and lysis buffer. After one-hour incubation at room temperature in the dark, the plates were read on a Clariostar apparatus.

- EC50: 110 nM
Compound: CC[C@H](C)[C@H](N)C(=O)N[C@H](C(=O)N[C@@H](CC(C)C)C(=O)N[C@@H](CO)C(=O)N[C@@H](CC(C)C)C(=O)N[C@@H](CC(=O)O)C(=O)N[C@@H](C(=O)N1CCC[C@H]1C(=O)N[C@H](C(=O)N[C@@H](CCCCN)C(=O)N[C@@H](CC(C)C)C(=O)N[C@@H](CCCCNC(=O)COCCOCCNC(=O)COCCOCCNC(=O)CC[C@H](NC(=O)CCCCCCCCCCCCCCCCC(=O)O)C(=O)O)C(=O)N[C@@H](CCC(N)=O)C(=O)N[C@H](C(=O)N[C@@H](CC(C)C)C(=O)N[C@@H](CC(C)C)C(=O)N[C@@H](CCCCN)C(=O)N[C@@H](CCC(N)=O)C(=O)N[C@@H](CCC(=O)O)C(=O)N[C@@H](CCCNC(=N)N)C(=O)N[C@@H](CCC(N)=O)C(=O)N[C@@H](CCCCN)C(=O)NC(C)(C)C(=O)N[C@@H](CCC(N)=O)C(=O)N[C@@H](CCCNC(=N)N)C(=O)N[C@@H](CCC(N)=O)C(=O)N[C@@H](CCC(N)=O)C(=O)N[C@@H](C)C(=O)N[C@@H](CCC(=O)O)C(=O)N[C@@H](CCCCN)C(=O)N[C@@H](CC(N)=O)C(=O)N[C@@H](CCCCN)C(=O)N[C@@H](CCC(N)=O)C(=O)N[C@H](C(=O)N[C@@H](CC(C)C)C(=O)N[C@@H](C)C(=O)N[C@@H](CCC(N)=O)C(=O)N[C@H](C(N)=O)C(C)C)[C@@H](C)CC)[C@@H](C)CC)[C@@H](C)CC)C(C)C)C(C)C [compound 135] (H-IVLSLD[dV]PIKLK([AEEA-AEEA-γGlu-C18 diacid])QILLKQERQK[Aib]QRQQAEKNKQILAQV-NH2; N-terminus assumed)
